The assay addresses T1, human Kv3.1 channels (Homo sapiens, UniProt P48547).
T1 construct: expressed in transfected cells; host or cells: CHO/Gam/E1A-clone22 (CGE22) cells, transient BacMam transduction
T1 sequence (P48547 1-511): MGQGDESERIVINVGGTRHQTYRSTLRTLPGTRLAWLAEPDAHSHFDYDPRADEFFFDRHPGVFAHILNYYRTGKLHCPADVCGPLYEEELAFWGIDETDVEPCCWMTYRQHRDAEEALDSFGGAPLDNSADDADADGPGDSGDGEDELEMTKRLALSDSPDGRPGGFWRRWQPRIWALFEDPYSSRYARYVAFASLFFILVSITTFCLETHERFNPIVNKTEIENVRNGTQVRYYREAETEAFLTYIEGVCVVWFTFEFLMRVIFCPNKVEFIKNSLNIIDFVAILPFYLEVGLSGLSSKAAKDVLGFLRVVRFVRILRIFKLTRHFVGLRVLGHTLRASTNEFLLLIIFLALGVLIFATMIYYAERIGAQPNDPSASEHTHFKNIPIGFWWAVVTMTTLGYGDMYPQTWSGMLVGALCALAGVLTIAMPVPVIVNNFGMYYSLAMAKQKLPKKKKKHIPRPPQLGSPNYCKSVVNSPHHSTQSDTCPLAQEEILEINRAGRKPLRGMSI
Briefly: hKv3.1 IonWorks Quattro whole-cell current potentiation assay. In kind it is cell-based. The following applies: potency as indicated by an EC50 value. The text has this: The ability of the compounds of the invention to modulate the voltage-gated potassium channel subtypes Kv3.3/Kv3.2/Kv3.1 may be determined using the following assay. Analogous methods may be used to investigate the ability of the compounds of the invention to modulate other channel subtypes.
To assess compound effects on human Kv3.1 channels (hKv3.1), CHO/Gam/E1A-clone22 alias CGE22 cells were transduced using a hKv3.1 BacMam reagent. This cell line was designed to be an improved CHO-K1-based host for enhanced recombinant protein expression as compared to wild type CHO-K1. The cell line was generated following the transduction of CHO-K1 cells with a BacMam virus expressing the Adenovirus-Gam1 protein and selection with Geneticin-G418, to generate a stable cell line, CHO/Gam-A3. CHO/Gam-A3 cells were transfected with pCDNA3-E1A-Hygro, followed by hygromycin-B selection and FACS sorting to obtain single-cell clones. […]
Experiments were conducted at room temperature using IonWorks Quattro™ planar array electrophysiology technology (Molecular Devices Corp.) with PatchPlate™ PPC. […] Planar electrode hole resistances (Rp) were determined by applying a 10 mV voltage step across each well. […]
Test pulses protocol may be performed in the absence (pre-read) and presence (post-read) of the test compound. […]
A general note: The patch-clamp technique gives a direct electrical read-out from membranes.

Consider one molecule from US11944623B2, “Modulators of Kv3 channels to treat pain” (Autifony Therapeutics Limited, priority 2015, dated 2024).

For `Cc1ccc(Oc2ccc(-n3c(C)n[nH]c3=O)cn2)c2c1OCC21CC1` [Compound 3, 5-methyl-4-{6-[(7-methylspiro[1-benzofuran-3,1′-cyclopropan]-4-yl)oxy]pyridin-3-yl}-2,4-dihydro-3H-1,2,4-triazol-3-one], the “activity between modulation of Kv3.1 and Kv3.2 channels” value is reported as “comparable activity”.
